Key:
[1] = biological target: T1, Corticotropin-releasing factor receptor 2 (Homo sapiens, UniProt Q13324)
T1 sequence (Q13324 whole entry): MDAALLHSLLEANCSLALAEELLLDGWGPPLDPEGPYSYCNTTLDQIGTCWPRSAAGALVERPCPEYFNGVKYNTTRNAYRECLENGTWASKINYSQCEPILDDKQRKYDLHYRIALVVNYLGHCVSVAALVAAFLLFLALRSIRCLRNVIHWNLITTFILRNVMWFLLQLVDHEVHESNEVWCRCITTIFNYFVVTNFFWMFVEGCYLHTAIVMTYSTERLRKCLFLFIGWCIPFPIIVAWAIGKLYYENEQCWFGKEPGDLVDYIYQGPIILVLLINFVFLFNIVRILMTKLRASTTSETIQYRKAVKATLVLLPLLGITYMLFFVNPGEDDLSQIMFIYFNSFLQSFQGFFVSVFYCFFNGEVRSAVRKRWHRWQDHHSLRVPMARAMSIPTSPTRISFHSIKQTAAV

Estrogen receptor beta = Estrogen receptor beta (Homo sapiens, UniProt Q92731)
Glucagon receptor = Glucagon receptor (Homo sapiens, UniProt P47871)
Histamine H2 receptor = Histamine H2 receptor (Homo sapiens, UniProt P25021)
[2] = biological target: T2, Neuropeptide Y receptor type 2 (Homo sapiens, UniProt P49146)
T2 sequence (P49146 whole entry): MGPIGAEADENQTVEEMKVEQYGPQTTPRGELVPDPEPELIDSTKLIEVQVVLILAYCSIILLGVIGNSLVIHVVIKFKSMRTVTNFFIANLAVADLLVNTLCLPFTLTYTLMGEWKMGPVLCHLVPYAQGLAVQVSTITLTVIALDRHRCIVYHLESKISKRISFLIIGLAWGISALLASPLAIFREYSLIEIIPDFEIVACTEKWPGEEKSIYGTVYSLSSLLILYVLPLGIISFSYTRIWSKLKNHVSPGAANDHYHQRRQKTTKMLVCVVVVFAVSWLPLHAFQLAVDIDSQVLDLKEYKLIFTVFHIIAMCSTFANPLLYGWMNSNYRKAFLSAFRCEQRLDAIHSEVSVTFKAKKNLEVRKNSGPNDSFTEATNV

[3] = biological target: T3, Alpha-2A adrenergic receptor (Homo sapiens, UniProt P08913)
T3 sequence (P08913 whole entry): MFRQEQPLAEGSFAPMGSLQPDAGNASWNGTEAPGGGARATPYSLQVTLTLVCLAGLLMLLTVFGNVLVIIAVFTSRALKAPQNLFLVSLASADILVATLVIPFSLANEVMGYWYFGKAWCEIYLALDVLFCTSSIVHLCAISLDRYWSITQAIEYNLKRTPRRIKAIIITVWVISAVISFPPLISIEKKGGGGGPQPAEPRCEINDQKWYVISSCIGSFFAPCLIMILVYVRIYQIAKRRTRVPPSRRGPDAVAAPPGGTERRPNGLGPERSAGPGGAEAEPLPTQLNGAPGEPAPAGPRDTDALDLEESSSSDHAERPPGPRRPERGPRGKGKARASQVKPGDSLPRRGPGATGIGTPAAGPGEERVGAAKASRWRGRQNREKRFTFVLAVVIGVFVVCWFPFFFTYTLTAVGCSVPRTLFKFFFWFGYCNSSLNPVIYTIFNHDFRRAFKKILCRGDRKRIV

[4] = biological target: T4, Muscarinic acetylcholine receptor M2 (Homo sapiens, UniProt P08172)
T4 sequence (P08172 whole entry): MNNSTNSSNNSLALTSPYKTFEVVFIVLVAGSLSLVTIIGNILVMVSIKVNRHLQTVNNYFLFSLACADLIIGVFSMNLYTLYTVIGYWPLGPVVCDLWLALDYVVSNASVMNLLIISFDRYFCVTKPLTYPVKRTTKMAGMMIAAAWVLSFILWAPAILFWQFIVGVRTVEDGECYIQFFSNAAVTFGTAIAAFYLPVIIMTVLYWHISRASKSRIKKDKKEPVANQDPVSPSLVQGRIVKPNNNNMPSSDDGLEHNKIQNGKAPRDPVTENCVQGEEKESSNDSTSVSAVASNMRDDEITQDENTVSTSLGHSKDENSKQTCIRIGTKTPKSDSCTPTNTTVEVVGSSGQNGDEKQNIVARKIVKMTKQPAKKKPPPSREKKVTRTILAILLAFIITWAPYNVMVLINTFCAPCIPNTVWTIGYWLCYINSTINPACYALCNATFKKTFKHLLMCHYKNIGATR
Note: assay procedure not described here.

Chain of Glucagon receptor (P47871 whole entry): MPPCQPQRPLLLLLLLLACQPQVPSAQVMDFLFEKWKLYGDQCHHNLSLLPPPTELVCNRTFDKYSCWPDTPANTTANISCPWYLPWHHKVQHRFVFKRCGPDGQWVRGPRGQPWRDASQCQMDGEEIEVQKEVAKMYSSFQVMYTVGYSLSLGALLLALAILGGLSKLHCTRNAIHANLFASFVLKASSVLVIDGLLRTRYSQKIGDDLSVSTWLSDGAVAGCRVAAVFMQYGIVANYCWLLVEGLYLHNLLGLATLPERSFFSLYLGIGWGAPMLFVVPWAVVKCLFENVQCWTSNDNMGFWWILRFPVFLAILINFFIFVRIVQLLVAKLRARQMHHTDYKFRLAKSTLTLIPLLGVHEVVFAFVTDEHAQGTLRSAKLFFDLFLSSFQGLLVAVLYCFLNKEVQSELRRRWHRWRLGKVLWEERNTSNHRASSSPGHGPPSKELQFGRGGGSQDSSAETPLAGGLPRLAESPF
Chain of Histamine H2 receptor (P25021 whole entry): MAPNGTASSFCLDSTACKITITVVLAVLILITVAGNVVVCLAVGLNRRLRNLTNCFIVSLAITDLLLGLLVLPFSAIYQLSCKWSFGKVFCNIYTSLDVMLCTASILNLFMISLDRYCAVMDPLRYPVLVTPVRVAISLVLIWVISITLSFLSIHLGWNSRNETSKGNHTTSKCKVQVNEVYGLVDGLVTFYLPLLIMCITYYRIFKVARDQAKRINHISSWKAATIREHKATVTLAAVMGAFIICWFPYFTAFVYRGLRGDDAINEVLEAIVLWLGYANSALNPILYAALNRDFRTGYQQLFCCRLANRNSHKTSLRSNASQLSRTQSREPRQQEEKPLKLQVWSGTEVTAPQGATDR
Chain of Estrogen receptor beta (Q92731 whole entry): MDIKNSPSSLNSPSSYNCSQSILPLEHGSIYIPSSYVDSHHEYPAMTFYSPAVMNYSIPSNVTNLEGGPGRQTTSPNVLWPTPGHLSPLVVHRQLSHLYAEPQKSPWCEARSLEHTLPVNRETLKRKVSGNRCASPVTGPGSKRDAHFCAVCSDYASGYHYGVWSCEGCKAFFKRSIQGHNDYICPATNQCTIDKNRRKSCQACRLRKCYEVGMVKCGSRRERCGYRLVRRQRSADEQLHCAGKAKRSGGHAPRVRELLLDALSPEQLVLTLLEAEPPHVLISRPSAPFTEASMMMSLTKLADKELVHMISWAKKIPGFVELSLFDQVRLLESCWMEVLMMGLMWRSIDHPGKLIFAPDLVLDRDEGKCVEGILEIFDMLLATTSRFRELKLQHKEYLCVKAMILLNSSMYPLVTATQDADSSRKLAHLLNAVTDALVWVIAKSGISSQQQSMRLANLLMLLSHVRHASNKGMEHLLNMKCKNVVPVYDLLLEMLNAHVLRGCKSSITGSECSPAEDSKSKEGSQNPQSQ

Q: What does the source list for Cc1ccc(-c2ncc(Cl)cc2-c2ccc(S(C)(=O)=O)cc2)cn1 [ETORICOXIB]?
A: AC50 [1]: > 30 µM; AC50 (Estrogen receptor beta): > 30 µM; AC50 (Glucagon receptor): > 30 µM; AC50 (Histamine H2 receptor): > 10 µM; AC50 [2]: > 30 µM; AC50 [3]: > 10 µM; AC50 [4]: > 10 µM

Q: Which results are given for CCOC(=O)C1=C(C)NC(C)=C(C(=O)OC)C1c1cccc(Cl)c1Cl (stereo not given) [FELODIPINE]?
A: AC50 [1]: > 30 µM; AC50 (Estrogen receptor beta): > 30 µM; AC50 (Glucagon receptor): > 30 µM; AC50 (Histamine H2 receptor): > 10 µM; AC50 [2]: > 30 µM; AC50 [3]: > 10 µM; AC50 [4]: > 10 µM

Q: For CN1C(=O)CN=C(c2ccccc2F)c2cc([N+](=O)[O-])ccc21 [FLUNITRAZEPAM], which AC50 [1] is on record?
A: > 30 µM

Q: And the AC50 (Estrogen receptor beta)?
A: > 30 µM

Q: What about the AC50 (Glucagon receptor) of the same compound?
A: > 30 µM

Q: And the AC50 (Histamine H2 receptor)?
A: > 10 µM

Q: What about the AC50 [2] of the same compound?
A: > 30 µM

Q: What about the AC50 [3] of the same compound?
A: > 10 µM

Q: What about the AC50 [4] of the same compound?
A: > 10 µM

Q: With CN1C2CCCC1CC(NC(=O)c1nn(C)c3ccccc13)C2 (stereo not given) [GRANISETRON] as the compound, how does the AC50 [1] read?
A: > 30 µM

Q: And the AC50 (Estrogen receptor beta)?
A: > 30 µM

Q: And the AC50 (Glucagon receptor)?
A: > 30 µM

Q: And the AC50 (Histamine H2 receptor)?
A: > 10 µM

Q: And the AC50 [2]?
A: > 30 µM

Q: And the AC50 [3]?
A: > 10 µM

Q: What about the AC50 [4] of the same compound?
A: > 10 µM

Q: With COc1ccc2c3c1O[C@H]1C(=O)CC[C@H]4[C@@H](C2)N(C)CC[C@]314 [HYDROCODONE] as the compound, how does the AC50 [1] read?
A: > 30 µM

Q: What about the AC50 (Estrogen receptor beta) of the same compound?
A: > 30 µM

Q: And the AC50 (Glucagon receptor)?
A: > 30 µM

Q: What about the AC50 (Histamine H2 receptor) of the same compound?
A: > 10 µM

Q: And the AC50 [2]?
A: > 30 µM

Q: What about the AC50 [3] of the same compound?
A: > 10 µM

Q: And the AC50 [4]?
A: > 10 µM
